Results taken from patent US20200255838A1, “Selenium Cancer Therapy” (University of Massachusetts, priority 2017, published 2020).

Key:
Type in all cases: cell-based
[1] = tested on: MDAMB468 and MDAMB231 cell lines; experiment: Hydrogen selenide gas toxicity assay; conditions: gas from sodium selenide in 10% hydrochloric acid, 96-well plate
Experimental: We developed a novel gas toxicity assay in which hydrogen selenide was produced in one well of a 96-well plate and the toxic effects were measured in an adjacent well. As described, SEPHS2 KO or control KO was achieved via pLENTICRISPR lentiviral transduction, and then cells were subjected to hydrogen selenide gas toxicity. Hydrogen selenide gas was formed by dissolving sodium selenide in an acidic (10% Hydrochloric Acid) solution in the central wells of a 96-well culture plate. SEPHS2 KO and CTRL cells (for MDAMB468 and MDAMB231 cell lines) were pre-seeded at various distances from the source of hydrogen gas toxicity (distances were equal under both conditions). The viability of each set of cells was averaged and relative viability of the SEPHS2 KO cells relative to control KO cells for each cell line are shown in FIG. 8.

U251 cells = experiment: Selenite toxicity / growth in KO cells
Experimental: FIGS. 2A-D provide evidence that SEPHS2 plays a detoxifying role in U251 GBM cell line. (A) Knockdown of either SEPHS2 or SEPSECS can block selenoprotein expression. (B) However, only SEPHS2 KO has significant toxicity. (C) Model for ‘pushing’ toxicity in which if SEPHS2 plays a detoxifying role, its KO should synergize with increased selenited input. (D) Synergy is indeed seen with 12 uM selenite treatment in conjunction with SEPHS2 KO. Growth is normalized to the already lower growth rate of the SEPHS2 KO cells, thus the bars in asterisks indicate (statistically significant) synergy.
We had classified SEPHS2 as a putative detoxifier as its substrate, selenide, is the most toxic form of selenium^12. The notion of SEPHS2 as a detoxifier has not 1 0 previously been explored, and SEPHS2 is simply known for its enzymatic role (which cannot be replaced by its isoform, SEPHS1^13) as an intermediate step in producing selenocysteine for selenocysteinyl-tRNA production. The selenocysteine producing pathway is a simple and linear pathway starting from dietary selenite—or selenite or other inorganic forms which can be converted to selenite, selenite being the most common form^14,15. Selenite is imported and converted through in an unclear manner to form selenide, which is then metabolized by SEPHS2 to form selenophosphate, accompanied by ATP hydrolysis. […]

GPX4 and SEPHS2 = experiment: Selenoprotein expression after selenite supplementation of media; conditions: selenite supplemented to media

SMILES	Viability of SEPHS2 KO cells relative to control KO cells under hydrogen selenide gas [1]	Growth with selenite in conjunction with SEPHS2 KO (U251 cells; 12 uM selenite, U251, growth normalized to SEPHS2 KO cells)	Toxicity of high-dose selenite in SLC7A11 KO cells (U251 cells; 12 μM selenite, U251 cells, both guides against SLC7A11)	Expression of selenoproteins GPX4 and SEPHS2 (GPX4 and SEPHS2)
[SeH2] [hydrogen selenide gas, hydrogen selenide]	hypersensitive	–	–	–
O=[Se](O)O [selenite]	–	Synergy	complete rescue	increased expression
